Results taken from patent US20240327463A1, “ANTIBACTERIAL PRODUCTS” (priority 2017, published 2024).
In brackets after ≈: the same amount, converted by molar mass. Bridge positions count the residues as written; N and C are the ends. Square brackets hold non-standard residues; d marks the D form. Peptide text beside a SMILES is read from it. ξ: configuration not given here. dNMeF = CN[C@H](Cc1ccccc1)C(=O)O; Ile(3ξ) = CCC(C)[C@H](N)C(=O)O; Chg = N[C@H](C(=O)O)C1CCCCC1; Nva = CCC[C@H](N)C(=O)O

tested on: MRSA ATCC 33591; conditions: ATCC 33591
Protocol: For MIC testing all peptides were dissolved in DMSO (according to the method of L. L. Ling, et al., Nature 2015, 517, 455-459). Bacteria were grown on Mueller Hinton broth (oxoid). All incubations were at 37° C. Dilutions were carried out using Mueller Hinton. 100 μl of autoclaved Mueller Hinton broth was added to wells 2-12 on a 96-well plate. 200 μl of the peptide was added to well one at a concentration of 512 μg/ml. 100 μl of peptide in well one was taken up and pipetted into well two. The mixture was then mixed via pipetting before 100 μl was taken up and pipetted into well three. This process was repeated up to well 11. […] This was repeated three times. The 96-well plates were then incubated for 24 hours. The MIC was determined to be the lowest concentration at which there was no growth visible.

Row | MIC (MRSA*) [µg/mL] | MIC (MRSA) [µg/mL] | Structure (SMILES)
1 | 1 to 2 | – | CC[C@@H](C)[C@@H](NC(=O)[C@@H](CCC(N)=O)NC(=O)[C@H](C)NC(=O)[C@@H](NC(=O)[C@@H](Cc1ccccc1)NC)[C@@H](C)CC)C(=O)N[C@H](C(=O)N[C@@H](CO)C(=O)N[C@H]1C(=O)N[C@@H](C)C(=O)N[C@@H](CCCNC(=N)N)C(=O)N[C@@H]([C@@H](C)CC)C(=O)O[C@H]1C)[C@@H](C)CC [Compound 9] (H-[dNMeF]IA[dQ][dI]IS[dT]ARI; ester 8-C)
2 | 2 to 4 | – | CC[C@@H](C)[C@@H](NC(=O)[C@@H](C)NC(=O)[C@H](CO)NC(=O)[C@@H](NC(=O)[C@@H](Cc1ccccc1)NC)[C@@H](C)CC)C(=O)N[C@H](C(=O)N[C@@H](CO)C(=O)N[C@H]1C(=O)N[C@@H](C)C(=O)N[C@@H](CCCNC(=N)N)C(=O)N[C@@H]([C@@H](C)CC)C(=O)O[C@H]1C)[C@@H](C)CC [Compound 10] (H-[dNMeF]IS[dA][dI]IS[dT]ARI; ester 8-C)
3 | 16 to 32 | – | CC[C@@H](C)[C@@H](NC(=O)[C@@H](CCC(N)=O)NC(=O)[C@H](CO)NC(=O)[C@@H](NC(=O)[C@@H](Cc1ccccc1)NC)[C@@H](C)CC)C(=O)N[C@H](C(=O)N[C@@H](C)C(=O)N[C@H]1C(=O)N[C@@H](C)C(=O)N[C@@H](CCCNC(=N)N)C(=O)N[C@@H]([C@@H](C)CC)C(=O)O[C@H]1C)[C@@H](C)CC [Compound 13, reference compound] (H-[dNMeF]IS[dQ][dI]IA[dT]ARI; ester 8-C)
4 | 32 (≈ 27.6 µM) | – | CC[C@@H](C)[C@@H](NC(=O)[C@@H](CCC(N)=O)NC(=O)[C@H](CO)NC(=O)[C@@H](NC(=O)[C@@H](Cc1ccccc1)NC)[C@@H](C)CC)C(=O)N[C@H](C(=O)N[C@@H](CO)C(=O)N[C@H]1C(=O)N[C@@H](C)C(=O)N[C@H](C)C(=O)N[C@@H]([C@@H](C)CC)C(=O)O[C@H]1C)[C@@H](C)CC [Compound 15]
5 | 2 (≈ 1.75 µM) | – | CC[C@@H](C)[C@@H](NC(=O)[C@@H](CCC(N)=O)NC(=O)[C@H](CO)NC(=O)[C@@H](NC(=O)[C@@H](Cc1ccccc1)NC)[C@@H](C)CC)C(=O)N[C@H](C(=O)N[C@@H](CO)C(=O)N[C@H]1C(=O)N[C@@H](C)C(=O)NCC(=O)N[C@@H]([C@@H](C)CC)C(=O)O[C@H]1C)[C@@H](C)CC [Compound 16, Gly10-teixobactin]
6 | – | 0.25 (≈ 0.204 µM) | CC[C@@H](C)[C@@H](NC(=O)[C@@H](CCC(N)=O)NC(=O)[C@H](CO)NC(=O)[C@@H](NC(=O)[C@@H](Cc1ccccc1)NC)[C@@H](C)CC)C(=O)N[C@H](C(=O)N[C@@H](CO)C(=O)N[C@H]1C(=O)N[C@@H](C)C(=O)N[C@@H](C2CCCCC2)C(=O)N[C@@H]([C@@H](C)CC)C(=O)O[C@H]1C)[C@@H](C)CC [Compound 36, Chg10-teixobactin]
7 | – | 0.5 (≈ 0.421 µM) | CCC[C@@H]1NC(=O)[C@H](C)NC(=O)[C@H](NC(=O)[C@H](CO)NC(=O)[C@@H](NC(=O)[C@H](NC(=O)[C@@H](CCC(N)=O)NC(=O)[C@H](CO)NC(=O)[C@@H](NC(=O)[C@@H](Cc2ccccc2)NC)[C@@H](C)CC)[C@H](C)CC)[C@@H](C)CC)[C@H](C)OC(=O)[C@H]([C@@H](C)CC)NC1=O [Compound 44, Nva10-teixobactin]
8 | – | 1 (≈ 0.796 µM) | CCC[C@@H]1NC(=O)[C@H](C)NC(=O)[C@H](NC(=O)[C@H](CO)NC(=O)[C@@H](NC(=O)[C@H](NC(=O)[C@@H](CCC(N)=O)NC(=O)[C@H](CCCNC(=N)N)NC(=O)[C@@H](NC(=O)[C@@H](Cc2ccccc2)NC)[C@@H](C)CC)[C@H](C)CC)[C@@H](C)CC)[C@H](C)OC(=O)[C@H]([C@@H](C)CC)NC1=O [Compound 45, Arg3-Nva10-teixobactin] (H-[dNMeF]IR[dQ][dI]IS[dT]A[Nva]I; ester 8-C)
9 | – | 0.25 (≈ 0.206 µM) | CCC[C@@H]1NC(=O)[C@H](C)NC(=O)[C@H](NC(=O)[C@H](CO)NC(=O)[C@@H](NC(=O)[C@H](NC(=O)[C@@H](CCCNC(=N)N)NC(=O)[C@H](CO)NC(=O)[C@@H](NC(=O)[C@@H](Cc2ccccc2)NC)[C@@H](C)CC)[C@H](C)CC)[C@@H](C)CC)[C@H](C)OC(=O)[C@H]([C@@H](C)CC)NC1=O [Compound 46, D-Arg4-Nva10-teixobactin]

Continued, compound first:

Row | Structure (SMILES) | MIC (MRSA*) [µg/mL] | MIC (MRSA) [µg/mL]
10 | CC[C@@H](C)[C@@H](NC(=O)[C@@H](CCC(N)=O)NC(=O)[C@H](CO)NC(=O)[C@@H](NC(=O)[C@@H](C)NC(C)=O)[C@@H](C)CC)C(=O)N[C@H](C(=O)N[C@@H](CO)C(=O)N[C@H]1C(=O)N[C@@H](C)C(=O)N[C@@H](CCCNC(=N)N)C(=O)N[C@@H]([C@@H](C)CC)C(=O)O[C@H]1C)[C@@H](C)CC [Compound 7] | >128 | –
11 | CC[C@@H](C)[C@@H](NC(=O)[C@@H](CCC(N)=O)NC(=O)[C@H](CO)NC(=O)[C@H](C)NC(=O)[C@@H](Cc1ccccc1)NC)C(=O)N[C@H](C(=O)N[C@@H](CO)C(=O)N[C@H]1C(=O)N[C@@H](C)C(=O)N[C@@H](CCCNC(=N)N)C(=O)N[C@@H]([C@@H](C)CC)C(=O)O[C@H]1C)[C@@H](C)CC [Compound 8] (H-[dNMeF]AS[dQ][dI]IS[dT]ARI; ester 8-C) | >128 | –
12 | CC[C@@H](C)[C@@H](NC(=O)[C@@H](CCC(N)=O)NC(=O)[C@H](CO)NC(=O)[C@@H](NC(=O)[C@@H](Cc1ccccc1)NC)[C@@H](C)CC)C(=O)N[C@@H](C)C(=O)N[C@@H](CO)C(=O)N[C@H]1C(=O)N[C@@H](C)C(=O)N[C@@H](CCCNC(=N)N)C(=O)N[C@@H]([C@@H](C)CC)C(=O)O[C@H]1C [Compound 12] (H-[dNMeF]IS[dQ][dI]AS[dT]ARI; ester 8-C) | >128 | –
13 | CCC(C)[C@@H]1NC(=O)[C@H](C)NC(=O)[C@H](NC(=O)[C@H](CO)NC(=O)[C@@H](NC(=O)[C@H](NC(=O)[C@@H](CCCNC(=N)N)NC(=O)[C@H](CCCNC(=N)N)NC(=O)[C@@H](NC(=O)[C@@H](Cc2ccccc2)NC)[C@@H](C)CC)[C@H](C)CC)[C@@H](C)CC)[C@H](C)OC(=O)[C@H]([C@@H](C)CC)NC1=O (stereo partly drawn) [Compound 35, Arg3-D-Arg4-Ile10-teixobactin] (H-[dNMeF]IR[dR][dI]IS[dT]A[Ile(3ξ)]I; ester 8-C) | – | 0.5 (≈ 0.385 µM)
14 | CC[C@@H](C)[C@@H](NC(=O)[C@@H](CCC(N)=O)NC(=O)[C@H](CCCNC(=N)N)NC(=O)[C@@H](NC(=O)[C@@H](Cc1ccccc1)NC)[C@@H](C)CC)C(=O)N[C@H](C(=O)N[C@@H](CO)C(=O)N[C@H]1C(=O)N[C@@H](C)C(=O)N[C@@H](C2CCCCC2)C(=O)N[C@@H]([C@@H](C)CC)C(=O)O[C@H]1C)[C@@H](C)CC [Compound 37, Arg3-Chg10-teixobactin] | – | 0.5 (≈ 0.386 µM)
15 | CC[C@@H](C)[C@@H](NC(=O)[C@@H](CCCNC(=N)N)NC(=O)[C@H](CO)NC(=O)[C@@H](NC(=O)[C@@H](Cc1ccccc1)NC)[C@@H](C)CC)C(=O)N[C@H](C(=O)N[C@@H](CO)C(=O)N[C@H]1C(=O)N[C@@H](C)C(=O)N[C@@H](C2CCCCC2)C(=O)N[C@@H]([C@@H](C)CC)C(=O)O[C@H]1C)[C@@H](C)CC [Compound 38, D-Arg4-Chg10-teixobactin] | – | 0.5 (≈ 0.398 µM)
16 | CC[C@@H](C)[C@@H](NC(=O)[C@@H](CCC(N)=O)NC(=O)[C@H](CO)NC(=O)[C@@H](NC(=O)[C@@H](Cc1ccccc1)NC)[C@@H](C)CC)C(=O)N[C@H](C(=O)N[C@@H](CO)C(=O)N[C@H]1C(=O)N[C@@H](CCCNC(=N)N)C(=O)N[C@@H](C2CCCCC2)C(=O)N[C@@H]([C@@H](C)CC)C(=O)O[C@H]1C)[C@@H](C)CC [Compound 39, Arg9-Chg10-teixobactin] | – | 1 (≈ 0.762 µM)
17 | CC[C@@H](C)[C@@H](NC(=O)[C@@H](CCCNC(=N)N)NC(=O)[C@H](CCCNC(=N)N)NC(=O)[C@@H](NC(=O)[C@@H](Cc1ccccc1)NC)[C@@H](C)CC)C(=O)N[C@H](C(=O)N[C@@H](CO)C(=O)N[C@H]1C(=O)N[C@@H](C)C(=O)N[C@@H](C2CCCCC2)C(=O)N[C@@H]([C@@H](C)CC)C(=O)O[C@H]1C)[C@@H](C)CC [Compound 40, Arg3-D-Arg4-Chg10-teixobactin] (H-[dNMeF]IR[dR][dI]IS[dT]A[Chg]I; ester 8-C) | – | 1 (≈ 0.755 µM)
18 | CC[C@@H](C)[C@@H](NC(=O)[C@@H](CCC(N)=O)NC(=O)[C@H](CCCNC(=N)N)NC(=O)[C@@H](NC(=O)[C@@H](Cc1ccccc1)NC)[C@@H](C)CC)C(=O)N[C@H](C(=O)N[C@@H](CO)C(=O)N[C@H]1C(=O)N[C@@H](CCCNC(=N)N)C(=O)N[C@@H](C2CCCCC2)C(=O)N[C@@H]([C@@H](C)CC)C(=O)O[C@H]1C)[C@@H](C)CC [Compound 41, Arg3-Arg9-Chg10-teixobactin] (H-[dNMeF]IR[dQ][dI]IS[dT]R[Chg]I; ester 8-C) | – | 0.5 (≈ 0.362 µM)
19 | CC[C@@H](C)[C@@H](NC(=O)[C@@H](CCCNC(=N)N)NC(=O)[C@H](CO)NC(=O)[C@@H](NC(=O)[C@@H](Cc1ccccc1)NC)[C@@H](C)CC)C(=O)N[C@H](C(=O)N[C@@H](CO)C(=O)N[C@H]1C(=O)N[C@@H](CCCNC(=N)N)C(=O)N[C@@H](C2CCCCC2)C(=O)N[C@@H]([C@@H](C)CC)C(=O)O[C@H]1C)[C@@H](C)CC [Compound 42, D-Arg4-Arg9-Chg10-teixobactin] (H-[dNMeF]IS[dR][dI]IS[dT]R[Chg]I; ester 8-C) | – | 0.5 (≈ 0.373 µM)
20 | CC[C@@H](C)[C@@H](NC(=O)[C@@H](CCCNC(=N)N)NC(=O)[C@H](CCCNC(=N)N)NC(=O)[C@@H](NC(=O)[C@@H](Cc1ccccc1)NC)[C@@H](C)CC)C(=O)N[C@H](C(=O)N[C@@H](CO)C(=O)N[C@H]1C(=O)N[C@@H](CCCNC(=N)N)C(=O)N[C@@H](C2CCCCC2)C(=O)N[C@@H]([C@@H](C)CC)C(=O)O[C@H]1C)[C@@H](C)CC [Compound 43, Arg3-D-Arg4-Arg9-Chg10-teixobactin] (H-[dNMeF]IR[dR][dI]IS[dT]R[Chg]I; ester 8-C) | – | 64 (≈ 45.4 µM)
